Residues, ends and D or L forms follow the SMILES beside them.

For one data set, the system named is IL-2 gene. Description: transcription of IL-2 gene in Jurkat cells stimulated with PMA and ionomycin, real-time quantitative RT-PCR. The following applies: 1 μM 11R-VEET. The class given is cell-based, human.
In data set [1] the test system is lymphocytes. Description: mixed lymphocyte test, [3H]TdR incorporation. The class given is cell-based, mouse. The following applies: 1 μM 11R-VEET.
Procedure: Spleen cells were retrieved from a 6 to 8 week old C3H/HeN mouse and a 6 to 8 week old BALB/c mouse H-2d (available from Shimizu Laboratory Supplies Co., Ltd.). The BALB/c spleen cells were treated with mitomycin C (available from Kyowa Hakko Kogyo Co., Ltd.) and used as stimulating cells.
Subsequently, 5×10^5 of mixed cells obtained by mixing the above stimulating cells and the spleen cells derived from a C3H/HeN mouse in a ratio of 1:5 were added in each well and cultured for 90 hours in a carbon dioxide culture device set to 37° C. and carbon dioxide concentration of 5%. As control, the mixed cells were added to wells containing only a medium and cultured in the same manner.
Then, ^3H-methyl-thymidine (hereinafter referred to as [^3H]TdR, available from Amersham Pharmacia Biotech K.K.) of 0.5 μCi/well was added and culture was conducted for 6 hours. Thereafter, the cells were placed on filter paper having a diameter of 1 cm and the radioactivity of [^3H]TdR incorporated into the cells was measured by a beta counter (made by Beckman Coulter K.K.).
For data set [2], the system named is lymphocytes. Description: mixed lymphocyte test using spleen cells from treated mouse, [3H]TdR incorporation. It is filed as in vivo, C3H/HeN mouse. The following applies: printed: 1 μM of 11R-VEET; method b87: 10 mg/kg intraperitoneal. As to the method: Thereafter, the cells were placed on filter paper having a diameter of 1 cm and the radioactivity of [^3H]TdR incorporated into the cells was measured by a beta counter.

Another data set concerns transplanted beta cells. The data set is described as follows: beta cell transplant in diabetic model mouse, survival of transplant by Kaplan-Meier. It is filed as in vivo. The following applies: 10 mg/kg intraperitoneally once a day after transplant, BALB/c donor, C3H/HeN diabetic recipient.
The test system of data set [3] is βTC6 cells. Description: insulin secretion of βTC6 cells (Mouse Insulin ELISA). The following applies: 11R-VEET 10, 100, 1000 or 10000 nM, 96 hours. The class given is cell-based. As to the method: The medium was replaced with a fresh medium containing […] every 24 hours. After 96 hours, the medium was replaced with a fresh medium. Culture was conducted for 1 more hour and the culture supernatant was collected. For control, βTC6 cells were cultured in the same manner, except that a medium without […] was used. Subsequently, using the collected supernatant, the secreted insulin was analyzed using Mouse Insulin ELISA (TMB) Kit (available from Shibayagi Co., Ltd.) according to protocol.
In general terms: An ELISA detects its analyte on a solid surface through an enzyme-linked reagent.

In data set [4] the test system is βTC6 cells. The data set is described as follows: proliferation of βTC6 cells, [3H]TdR incorporation. The class given is cell-based. The conditions noted are these: 11R-VEET 10, 100, 1000 or 10000 nM. As to the method:
The medium was replaced with a fresh medium containing […] every 24 hours. Subsequently, [^3H]TdR of 1 μCi/well was added and culture was conducted for 8 more hours. For control, βTC6 cells were cultured in the same manner except that a medium without […] was used. Thereafter, the cells were placed on filter paper having a diameter of 1 cm and the radioactivity of [^3H]TdR incorporated into the cells was measured by a beta counter.

Data set [5] relates to IL-2 gene (transcription). Description: half-life in T cells based on inhibitory activity to IL-2 transcription (time course in Jurkat cells). The following applies: human. On the procedure:
Subsequently, 100 μl of RPMI containing 2 μM of PMA and 40 μM of ionomycin was added and culture was conducted further for 12 hours, 17 hours, 23 hours, 35 hours or 59 hours.
Subsequently, the relative RNA amount to GAPDH was measured by conducting RT-PCR and real-time quantitative RT-PCR and analysis in the same manner as in Example 3, except that the respective obtained cells were used as samples. The time shown in FIG. 2 refers to the total culture time.
Using 1 ml of 10% fetal bovine serum-containing RPMI containing 1 μM of FK 506, 1×10^5 Jurkat cells were cultured for 1 hour in a carbon dioxide culture device set to 37° C. and carbon dioxide concentration of 5%. Subsequently, 100 μl of RPMI containing 2 μM of PMA and 40 μM of ionomycin was added and culture was conducted further for 12 hours, 17 hours, 23 hours, 35 hours or 59 hours. Thereafter, RT-PCR and real-time quantitative RT-PCR were conducted in the same manner as in Example 3, except that the obtained culture cells were used.

Procedure for transplanted beta cells: For the transplant, a 6 week old BALB/c mouse was used as the donor and a 6 week old C3H/HeN mouse was used as the recipient.
A diabetic model mouse was prepared by intraperitoneally injecting 220 mg/kg of streptozocin (available from Sigma-Aldrich Japan K.K.) to a C3H/HeN mouse. 6 days after the streptozocin injection, the mouse in which the glucose level exceeded 350 mg/dl was determined as being hyperglycemic.
Meanwhile, the spleen of the BALB/c mouse was taken out and after subjecting to discontinuous Ficoll density gradient centrifugation, beta cells were isolated by normal collagenase digestion.
About 500 of the isolated beta cells were transplanted under the capusula of the left kidney of the above diabetic model mouse. […] The glycemia was measured and when the level thereof exceeded 200 mg/dl for 2 consecutive days, transplant rejection was considered to have occurred.

Regarding “11R-VEET: peptide comprising 11 consecutive arginine residues and VEET (MAGPPHIVEETGPHVI) with 3 glycine residues; SEQ ID NO. 4; negative control (RRRRRRRRRRRGGGMAGPPHIVEETGPHVI)”, the “effect on transcription level of IL-2 gene” value in the data set with IL-2 gene is reported as “did not affect”. In the data set with lymphocytes [1], the “effect on proliferation of lymphocytes” value is given as “not affected”. In addition, in the data set on lymphocytes [2], the “effect on proliferation of lymphocytes (cells from treated mouse)” value is on record as “not affected”. For the same molecule, the “survival rate of transplanted beta cells compared to control” value in the data set with transplanted beta cells is “did not affect”. Further, the “insulin secretion amount of βTC6 cells” value in the data set on βTC6 cells [3] was “unaffected”. The “inhibitory effect to proliferation of βTC6 cells” value with βTC6 cells [4] was “did not exhibit an inhibitory effect”.

As usually defined, the half-life is the time in which the quantity being followed falls by half. For `CC[C@H](C)[C@H](NC(=O)[C@@H](NC(=O)[C@@H]1CCCN1C(=O)[C@H](Cc1c[nH]cn1)NC(=O)[C@@H]1CCCN1C(=O)CNC(=O)[C@H](C)NC(=O)[C@H](CCSC)NC(=O)CNC(=O)CNC(=O)CNC(=O)[C@H](CCCNC(=N)N)NC(=O)[C@H](CCCNC(=N)N)NC(=O)[C@H](CCCNC(=N)N)NC(=O)[C@H](CCCNC(=N)N)NC(=O)[C@H](CCCNC(=N)N)NC(=O)[C@H](CCCNC(=N)N)NC(=O)[C@H](CCCNC(=N)N)NC(=O)[C@H](CCCNC(=N)N)NC(=O)[C@H](CCCNC(=N)N)NC(=O)[C@H](CCCNC(=N)N)NC(=O)[C@@H](N)CCCNC(=N)N)C(C)C)C(=O)N[C@H](C(=O)N[C@H](C(=O)N[C@H](C(=O)NCC(=O)N1CCC[C@H]1C(=O)N[C@@H](Cc1c[nH]cn1)C(=O)N[C@@H](CCC(=O)O)C(=O)N[C@@H](CCC(=O)O)C(=O)O)[C@@H](C)O)[C@@H](C)CC)C(C)C` [11R-VIVIT] (H-RRRRRRRRRRRGGGMAGPHPVIVITGPHEE-OH; N-terminus and C-terminus assumed), the half-life at 1 μM in data set [5] is approximately 30 h.

These data come from patent publication US7659249B2, “Membrane-permeable NFAT inhibitory peptide” (Japan Science and Technology Agency, priority 2002, dated 2010).
